# Literature values as cited in patent US4801604A (priority 1987, dated 1989).
# Details: phenytoin and structurally related drugs
compound,measurement,value
O=C1NC(=O)C(c2ccccc2)(c2ccccc2)N1 [phenytoin],Side effects (in words),"hyperplasia of the gums, cerebellar degeneration, gastric distress and serious skin rashes"
